SMILES strings stand for the structures. Several values for one entry are separate records, joined by “and”; a condition that tells them apart may be missing. Identical values can stand only once. Like-named read-outs stand apart in the source and are kept apart here. Marks after values point to notes of the source that are not given here.

What is called IC50 is the midpoint of a concentration-inhibition curve. The term half-life denotes the time needed for the level to fall by half in the phase considered. In general, AUC(0-inf) refers to the area under the concentration-time curve extrapolated to infinity. Broadly, the clearance is a measure of how efficiently the substance is removed, as volume per time. In general, AUC(0-t) refers to the area under the concentration-time curve up to a stated or last time point. Broadly, the Cmax is the maximum level reached in the sampled fluid or tissue. For orientation: Vz means a proportionality between amount in the body and measured concentration, not a real space. For orientation: inhibition means the relative decrease from the control value, in per cent.

Series [1] concerns ADP induced platelet aggregation. Put plainly: In vitro anti-platelet aggregation, ADP induced (turbidimetry, PRP). It is filed as cell-based, rabbits. As for the experimental part:
(§1) The animals were used for experiments after 1 week.
(§2) The common carotid artery was separated, and a polyethylene tube was inserted into the common carotid artery to collect blood. […] The upper beige suspension was pipetted to obtain the platelet-rich plasma (PRP). […] The PRP was adjusted with the PPP to make the platelet count at 1×10^8/mL.
(§3) 260 μL of platelet-rich plasma (PRP) was added into a turbidimetric tube. Then 10 μL of test compounds with different concentrations, positive control drugs or normal saline were separately added, and the plasma was incubated at 37° C. for 5 min. Then 30 μL of inducers were added in sequence. The final concentration of an inducer ADP is 10 μM, and the final concentration of an inducer AA is 1 mM. […] Inhibition rate of platelet aggregation (IRPA)=(platelet aggregation rate of the control group−platelet aggregation rate of the experimental group)/platelet aggregation rate of the control group×100%.

For series [2], the system named is AA induced platelet aggregation. Put plainly: In vitro anti-platelet aggregation, AA induced (turbidimetry, PRP). It is filed as cell-based, rabbits. The following applies: read-out: IC50 AA (1 mM); rabbit PRP, inducer AA 1 mM, 37° C. As to the method: as §1, §2, §3
The next series has as its system MCAO rats. Put plainly: Cerebral infarction, cerebral edema and nerve function of rats with focal cerebral ischemia (MCAO). It is filed as in vivo, SD rats. The note with it: for inhibition at 10 mg/kg/day: Rattus norvegicus. As to the method: The total number of the animals was 88.
Sham operation group: equal volume of normal saline (containing 1% DMSO) (iv. 3 days), TTC, cerebral edema and neurological function score (n=8); […]
The middle cerebral arteries of the rats were blocked by a suture-occluded method, and reperfused after 2 h. […] All drugs were formulated into normal saline solutions containing 1% DMSO for administration, and the duration of administration was controlled at approximately 1 min. […] 2 h after the last administration, the neurological defect scores were firstly obtained, and then the rats of each group were sacrificed. The whole brains were taken out and weighed (wet weight), TTC stained, and dried to determine the effects of the compounds on cerebral infarction and cerebral edema.
2 h after the last administration, the neurological defects of the animals were graded and scored by the Longa's method.
After the neurobehavioral examination was completed, four coronal incisions were made on the whole brains of the rats on the optic chiasma and 2 mm anteroposterior positions of the optic chiasma. After the whole brains were cut into five slices, the brain slices were quickly placed in 5 ml of phosphate buffer solution containing 2% TTC, and incubated at 37° C. in the dark. In the incubation process, the brain slices were turned once every 5 min. After 10 min of incubation, the brain slices were taken out and pictures were taken with a digital camera (Olympus C-4000, Japan).
The calculation formula of brain water content is as follows: Water content of brain tissue (%)=(wet weight of brain tissue−dry weight of brain tissue)/wet weight of brain tissue×100%; Cerebral edema rate (%)=water content of brain tissue of each group (%)−water content of brain tissue of sham operation group (%)/water content of brain tissue of sham operation group (%)×100%; Inhibition rate of cerebral edema (%)=(rate of cerebral edema of model group (%)−rate of cerebral edema of administration group (%))/rate of cerebral edema of model group (%)×100%.

Series [3] concerns arteriovenous bypass thrombosis in rats. Put plainly: Effect on arteriovenous bypass thrombosis in rats. Type of series: in vivo, SD rats. The note with it: 10 mg/kg/day tail vein 7 days; for inhibition at 10 mg/kg/day: Rattus norvegicus, 168 h. As for the experimental part: Male SD rats, weighing 250-280 g, purchased from Beijing Vital River Laboratory Animal Technology Co., Ltd., raised in an SPF breeding environment with indoor temperature controlled at 23±2° C., and allowed to freely eat and drink. The total number of the animals is 64.
Model group: injected with the same volume of normal saline (containing 1% DMSO) through the tail vein, and administered continuously for 7 days. The test was started 2 h after the last dose (n=8).
The dose of all drugs was 10 mg/kg/day. The drugs were formulated into normal saline solutions containing 1% DMSO, and injected through the tail vein for 7 consecutive days. The test was started 2 hours after the last dose (n=8).
The rats were intraperitoneally injected with a 3% pentobarbital sodium solution (30 mg/kg). After anesthesia, the rats were immobilized in the supine position, and a median cervical incision was made to separate the right common carotid artery and left external jugular vein. A 6 cm long suture was put in the middle of a polyethylene tube (the suture needs to be weighed before being put in the tube), and the polyethylene tube was filled with heparin saline (50 U/mL). The polyethylene tube was inserted into the separated blood vessels to make the artery and vein form a loop. After 15 min of circulation of the blood flow, the suture was taken out, and the suture with thrombus was collected and weighed immediately. Then, after the suture was dried at room temperature for 24 h, the dry weight was determined. The total weight minus the weight of the suture was the wet weight of the thrombus, and the dry weight minus the weight of the suture was the dry weight of the thrombus.

A short description of series [4]: Concentration of metabolites in rat brain tissue after intravenous injection of I1s. Type of series: in vivo. As for the experimental part: (§4) 12 clean SD male rats, provided by Qinglongshan Animal Breeding Farm in Jiangning District, Nanjing. The production license number is SCXK (Jiangsu) 2017-0001. The body weight of the rats ranges from 180 to 220 g. The rats were used after being raised in the laboratory of an experimental animal center for 2 days after purchase, fasted for 12 hours before administration and 6 hours after administration, and were allowed to freely drink during the test period.
(§5) The concentration of the original drugs and metabolites in the rat blood were determined by LC-MS/MS, and WinNonlin pharmacokinetics professional software and a statistical moment method were used for calculation to obtain the corresponding pharmacokinetic parameters.

Series [5] in a line: Pharmacokinetics of metabolites in rat plasma after intravenous injection of I1s. Type of series: in vivo, SD male rats. The following applies: metabolite in rat plasma after I1s 25 mg/kg tail vein, rats 1-3. As for the experimental part: as §4, §5
Where [6] appears, read: read-out: IC50 ADP (10 μM), rabbit PRP, inducer ADP 10 μM, 37° C.
[7] abbreviates: iv 2 h after the beginning of reperfusion, 5 mg/kg.
Where [8] appears, read: iv 2 h after the beginning of reperfusion, 10 mg/kg.
The mark [9] stands for this setting: iv 2 h after the beginning of reperfusion, 20 mg/kg.
[10] abbreviates: iv at the beginning of reperfusion, 5 mg/kg.
The mark [11] stands for this setting: iv at the beginning of reperfusion, 10 mg/kg.
Where [12] appears, read: iv at the beginning of reperfusion, 20 mg/kg.
Where [13] appears, read: MCAO rats, 10 mg/kg/day iv 3 days (combinations equimolar), first dose 2 h after reperfusion.
The mark [14] stands for this setting: male, Sprague-Dawley, rat, plasma, iv, 25 mg/kg.

As to `CCCCC(O)c1ccccc1C(=O)O.N=C(N)NCCC[C@H](N)C(=O)O` (racemic) [AHPB, L-Arginine (R/S)-2-(1-Hydroxy-n-Pentyl) Benzoate], the concentration for half-maximal inhibition (IC50) in series [1] (setting [6]) came to 980 ± 210 µM; in series [2], 340 ± 40 µM. The Cerebral edema with MCAO rats (setting [7]) is on record as 6.50 ± 1.86%; with MCAO rats (setting [8]), 3.03 ± 2.87%; with MCAO rats (setting [9]), 1.64 ± 3.36%; in the series on MCAO rats (setting [10]), 5.94 ± 2.45%; in the series on MCAO rats (setting [11]), 2.01 ± 2.91%; in the series on MCAO rats (setting [12]), 2.08 ± 4.58%. In addition, the Infarct volume is reported as 37.54 ± 6.94% in the series on MCAO rats (setting [7]); 25.70 ± 4.75% with MCAO rats (setting [8]); 23.56 ± 5.29% in the series with MCAO rats (setting [9]); 29.98 ± 4.99% in the series with MCAO rats (setting [10]); 19.83 ± 3.95% with MCAO rats (setting [11]); 17.71 ± 4.65% in the series on MCAO rats (setting [12]). The “Inhibition rate of cerebral edema” value with MCAO rats (setting [7]) is recorded as 31.12%; in the series with MCAO rats (setting [8]), 67.94%; with MCAO rats (setting [9]) it was 82.57%; with MCAO rats (setting [10]), 38.82%; in the series with MCAO rats (setting [11]), 79.34%; in the series with MCAO rats (setting [12]), 78.57%. Also, the “Inhibition rate of infarct volume” value in the series on MCAO rats (setting [7]) was 24.34%; with MCAO rats (setting [8]), 48.19%; with MCAO rats (setting [9]) it was 52.51%; in the series on MCAO rats (setting [10]), 39.06%; in the series with MCAO rats (setting [11]) it was 59.69%; in the series on MCAO rats (setting [12]), 64.00%. Moreover, the “Effects of improving cerebral infarction, cerebral edema and neurological function compared with NBP (5 mg/kg)” value in the series with MCAO rats (low-dose 5 mg/kg iv, at reperfusion or 2 h after) is given as “no significant difference”. Besides, the “Improving the neurological function compared with NBP (5 mg/kg)” value in the series with MCAO rats (middle and high doses 10, 20 mg/kg iv) is on record as “equivalent to NBP (5 mg/kg)”.

On to `CCCCC(OC(C)=O)c1ccccc1C(=O)O.N=C(N)NCCC[C@H](N)C(=O)O` (racemic) [I1, L-Arginine (R/S)-2-(1-Acetoxy-n-Pentyl) Benzoate], for which the IC50 in series [1] (setting [6]) amounted to 740 ± 90 µM. Further, the IC50 in series [2] came out at 180 ± 30 µM. Also, in series [3] (2 h after last dose), the “Dry weight of thrombus” value turned out to be 7.64 ± 0.40 and the “Wet weight of thrombus” value is 25.81 ± 2.20**^. Moreover, in series [3] (vs model group), the “Inhibition rate (dry weight of thrombus)” value was 23.94% and the “Inhibition rate (wet weight of thrombus)” value is 28.72%. Further, in the series with MCAO rats (setting [13]), the Cerebral edema came out at 4.97 ± 3.30%, the Infarct volume is on record as 16.11 ± 2.74%, the “Inhibition rate of cerebral edema” value is given as 69.00% and the “Inhibition rate of infarct volume” value is 61.50%.

Turning to `CCCC[C@H](OC(C)=O)c1ccccc1C(=O)O` [(S)-APB, (S)-2-(1-acetoxy-n-pentyl)benzoic acid], the “Passage through the blood-brain barrier” value in series [4] (detected in rat brain tissue after iv I1s) is “could all pass through the blood-brain barrier”. In addition, the concentration at 6 h in series [4] (male, Sprague-Dawley, rat, brain, iv, 25 mg/kg, 6 h after intravenous injection of I1s, read-out: Concentration in brain tissue (single rats)) was 26.1 ng/g. In series [5] (male, Sprague-Dawley, rat, plasma, intravenous, 25 mg/kg), the half-life was around 3 h. For the same molecule, in series [5] (setting [14]), the AUC(0-inf) came to 31800 ng·h/mL, the clearance is 13.1 mL/min/kg and the half-life was 2.71 h. The AUC(0-t) in series [5] (male, Sprague-Dawley, rat, plasma, iv, 25 mg/kg, read-out: AUC(0-t)) worked out at 31700 ng·h/mL. In series [5] (male, Sprague-Dawley, rat, plasma, iv, 25 mg/kg, read-out: Cmax), the Cmax worked out at 51.4 µg/mL. In addition, in series [5] (listed as M2), the “AUC(0-t)” value is 28614.9 ng·h/mL and 28503.7 ng·h/mL; the “AUC(0-∞)” value is 28748.5 ng·h/mL and 28703.5 ng·h/mL; the Cl is 14.494 mL/min/kg and 14.516 mL/min/kg; the Cmax was 53.5132 µg/mL and 52.0692 µg/mL. Besides, the Vz in series [5] (listed as M2) was 4.1842 L/kg and 4.8584 L/kg. Further, the IC50 in series [1] (Oryctolagus cuniculus, Platelet, read-out: IC50 ADP (10 μM), rabbit PRP, inducer ADP 10 μM, 37° C.) is 790 ± 80 µM. Further, the IC50 in series [2] turned out to be 430 ± 50 µM.

For `CCCC[C@@H](OC(C)=O)c1ccccc1C(=O)O` [I1r, L-Arginine (R)-2-(1-Acetoxy-n-Pentyl) Benzoate], the IC50 was 730 ± 70 µM in series [1] (setting [6]) and 180 ± 30 µM in series [2]. Also, in series [3] (2 h after last dose), the “Dry weight of thrombus” value was 8.51 ± 0.18. In addition, the inhibition at 10 mg/kg/day in series [3] (vs model group, read-out: Inhibition rate (dry weight of thrombus)) came out at 15.2%; in series [3] (vs model group, read-out: Inhibition rate (wet weight of thrombus)) it was 18.4%; in the series on MCAO rats (MCAO rats, 10 mg/kg/day iv 3 days (combinations equimolar), first dose 2 h after reperfusion, read-out: Inhibition rate of cerebral edema), 33.2%; in the series on MCAO rats (MCAO rats, 10 mg/kg/day iv 3 days (combinations equimolar), first dose 2 h after reperfusion, read-out: Inhibition rate of infarct volume) it was 51.9%. The Cerebral edema with MCAO rats (setting [13]) is listed as 10.72 ± 4.19%. For the same molecule, in the series with MCAO rats (setting [13]), the Infarct volume came out at 20.14 ± 2.95%.

`CCCC[C@H](OC(C)=O)c1ccccc1C(=O)O.N=C(N)NN` [I7s, Aminoguanidine (S)-2-(1-Acetoxy-n-Pentyl) Benzoate]: in series [1] (setting [6]), the IC50 was found to be 680 ± 30 µM. Moreover, the IC50 in series [2] turned out to be 120 ± 10 µM. Further, in the series with MCAO rats (setting [13]), the Cerebral edema was 12.34 ± 4.57%, the Infarct volume was found to be 24.83 ± 2.02%, the “Inhibition rate of cerebral edema” value is listed as 23.07% and the “Inhibition rate of infarct volume” value was 40.67%.

The record behind these values is patent US11814352B2, “Salts formed by 2-(1-acyloxy-n-pentyl) benzoic acid and basic amino acid or aminoguanidine, and preparation method and application thereof” (JIANGSU KANION PHARMACEUTICAL CO., LTD., priority 2018, dated 2023).
